Results published in US11345895B2, “Induction of arterial-type of hemogenic endothelium (AHE) and enhancement of T cell production from PSCs through overexpression of ETS factors or modulating MAPK/ERK signalling pathways” (Wisconsin Alumni Research Foundation, priority 2016, dated 2022).

Columns and labels:
Type in all cases: cell-based, human
[1] = test system: NOTCH signaling in iETS1 hESC cultures; assay: Hematopoiesis following ETS1 upregulation in the presence of NOTCH signaling blockade; settings: DOX-treated iETS1 hESC cultures; DAPT 10 μM, DLL4 blocking antibody 10 μg/ml
Source text: To confirm the role of NOTCH activation in promoting definitive hematopoiesis by ETS1, we evaluated hematopoiesis following ETS1 upregulation in the presence of NOTCH signaling inhibitor DAPT, and DLL4 neutralizing antibodies (FIG. 4E).
(§1) HB-CFCs were detected as described previously^54. HB-CFCs were detected using the semisolid colony-forming serum-free medium (CF-SFM) containing 40% ES-Cult M3120 methylcellulose (2.5% solution in IMDM, Stem Cell Technologies), 25% StemSpan™ serum-free expansion medium (SFEM, Stem Cell Technologies), 25% human endothelial serum-free medium (ESFM, Invitrogen), 10% BIT 9500 supplement (Stem Cell Technologies), GlutaMAX™ (1/100 dilution, Invitrogen), Ex-Cyte™ (1/1000 dilution, Millipore), 100 μM MTG, 50 μg/ml ascorbic acid and 20 ng/ml FGF (Peprotech). Hematopoietic CFCs were detected using serum containing H4435 MethoCult with FGF, SCF, IL-3, IL-6 and EPO (Stem Cell Technologies).
Cells were analyzed using MACSQuant Analyzer (Miltenyi Biotec) and FlowJo software (Tree star).
Notch signaling was blocked by DAPT (γ-secretase inhibitor/GSI, 10 μM, Cayman Chemicals) or DLL4 blocking antibody (10 μg/ml, Creative BioLabs)

[2] = test system: CD235a/CD41a-CD45+ hematopoietic progenitors from hESCs; assay: Hematopoietic progenitor production and hematopoietic CFC assay after modulation of MAPK/ERK signaling; settings: ERK pathway activated (LY294002 2 μM) or inhibited (U0126 1 μM), days 3-6
Experimental: (§2) To determine whether modulating MAPK/ERK signaling affects arterial specification of HE from hPSCs, we treated differentiation cultures on days 3 through day 6 with PI3K inhibitor LY294002, or MEK1 and MEK2 inhibitor U0126 (FIG. 6A).
(§3) MAPK/ERK pathway was activated using LY294002 (2 μM, Cayman Chemicals) and was inhibited using U0126 (1 μM, Cayman Chemicals)

[3] = test system: T lymphoid potential of hESC cultures; assay: T cell differentiation on OP9-DLL4 after LY294002 or U0126 treatment; settings: cultures treated with LY294002 2 μM or U0126 1 μM
Experimental: as §2
T cell differentiation of hESC-derived hematopoietic precursors was performed on the OP9−DLL4 in T cell differentiated medium consisting of α-MEM (Gibco) supplemented with 20% FBS (Hyclone), 5 ng/ml FLT3L, 5 ng/ml IL-7 and 10 ng/ml SCF (all from PeproTech) as described previously^26. […] Cultures were fed with complete media changes weekly.
as §3

[4] = test system: DLL4+ arterial type HE from hPSCs; assay: Arterial HE specification in hESC differentiation cultures with modulation of MAPK/ERK signaling (flow cytometry); settings: differentiation cultures treated on days 3 through day 6; LY294002 2 μM, U0126 1 μM
Experimental: as §2
H1 hESC line, the iETS1 H1 hESC line and the tdTomato H1 hESCs line were maintained on Matrigel™ in mTeSR1™ medium. Cells were passaged every 3-4 days using 0.5 mM EDTA in PBS. The hESC lines were differentiated on ColIV coated plate as previously described in details^26.
as §3

[5] = test system: iETS1-hESCs (H1, DOX-inducible ETS1 transgene); assay: Primitive and definitive hematopoiesis from DOX-treated iETS1-hESCs (HB-CFC, HE, T cell, RBC cultures); settings: CD43+ cells subcultured on OP9-DLL4
Experimental: To define which type of hematopoiesis is affected by ETS1 overexpression, we evaluated the effect of DOX treatment on i) hemangioblast (HB) CFCs that reflect the primitive wave of hematopoiesis^37, 38 and ii) on T lymphocytes and β-hemoglobin-producing red blood cells that reflect definitive hematopoiesis (FIG. 3A)^37, 39. […] This effect was more profound when cultures were treated with DOX from day 0 through day 3 to ensure maximum ETS1 overexpression on day 3 (FIG. 3B and FIGS. 9B-9C). […] To determine the effect of ETS1 upregulation on T cell potential, we collected CD43^+ cells from DOX+ and DOX− cultures and subcultured on OP9−DLL4 stromal cells. […]
as §1, with “Technologies). […]” for “Technologies).”

C[C@H](NC(=O)Cc1cc(F)cc(F)c1)C(=O)N[C@H](C(=O)OC(C)(C)C)c1ccccc1 [DAPT]
effect of ETS1 upregulation on hematopoiesis (blood production and CFC potential) [1]: abrogated effect

N#CC(=C(/N)Sc1ccccc1N)/C(C#N)=C(\N)Sc1ccccc1N [U0126]
production of multipotent CD235a/CD41a-CD45+ hematopoietic progenitors and CFC potential [2]: abrogated production | T lymphoid potential [3]: entirely abrogated | production of DLL4+ arterial type HE, including the DLL4+CXCR4+ fraction [4]: almost completely abrogated formation

C[C@H]1c2cccc(O)c2C(=O)C2=C(O)[C@]3(O)C(=O)C(C(N)=O)=C(O)[C@@H](N(C)C)[C@@H]3[C@@H](O)[C@@H]21 [DOX, doxycycline]
number of T lymphoid cells per 10^4 of CD43 cells, DOX+ versus DOX- cultures [5]: ~8 fold
